A short description of the series: Solubility of the thiolysine-modified peptides in the ligation buffer. It is filed as physicochemical. Conditions: Tris-HCl pH 7.5 buffer used during the ligation reaction. From the text:
This is not surprising as this peptide is made up for ≈50% of hydrophobic amino acids and contains 3 beta-strands in the native PCNA protein (see Supporting Information). Besides performing the ubiquitin ligations with an excess of peptide (rxn 1-3 and 6-16, FIGS. 6 and 7), it was also observed that the use of (roughly) equimolar amounts of ubiquitin and peptide (rxn 4, 5 FIG. 6 and FIGS. 8-10) allowed ligation. In order to be able to develop the here presented ligation methodology for solid phase peptide synthesis, with the peptide being anchored to the solid support, it is important to fully consume all peptide. In order to confirm that a polar organic solvent is compatible with the reaction conditions, we repeated the ubiquitin ligation of the H2B peptide TKAVTK*YTSSK, using a DMSO stock of the peptide, up to a final concentration of 10% DMSO (rxn 14-16, FIG. 7).

In the case of “GDAWISC*AK*DGVKFSASGELGNGNIKLSQ [Peptide 1]”, the solubility result is “only soluble in polar organic solvents such as DMF and DMSO”.

These data come from patent publication US8729009B2, “Lysine compounds and their use in site- and chemoselective modification of peptides and proteins” (Stichting Het Nederlands Kanker Instituut, priority 2009, dated 2014).
